Data: publication PMC6476888, “Design and synthesis of anticancer 1-hydroxynaphthalene-2-carboxanilides with a p53 independent mechanism of action” (Scientific Reports, 2019)
Where two headings read alike, the source gives them in different places.

Assays:
HCT116^+/+ = assay: Antiproliferative assay (MTS, 72 h) on HCT116 wild type; type: cell-based, human; settings: MTS, 72 h incubation, read-out: Activity IC50 HCT116^+/+
Experimental: (§1) All of the synthesized compounds were tested for their antiproliferative activity against human colon cancer (Table 1). We used both the wild-type and p53-negative cell lines (HCT116^+/+ and HCT116^−/−, respectively). Mutations in the TP53 gene are present in more than 50% of all cancers and often specifically correspond to a difficult therapy, resistance or a bad prognosis[60]–[63]. The active compounds were additionally tested for their cytotoxicity against normal human fibroblasts. We used 5-fluorouracil (5-FLU), doxorubicin (DOX) and CP-31398 as the standards. 5-FLU is one of the first antimetabolites that was dedicated for cancer treatment and is still used for a wide range of cancers including colon carcinoma. Doxorubicin is a DNA topoisomerase II poison with a high intercalating potency, which is able to induce apoptosis through the p53 pathway. Although DOX has been described as being ineffective in some p53 mutants, its level of activity against the p53 null lines is similar. CP-31398, on the other hand, is an experimental drug in the clinical phase and its mechanism of action is through the reactivation some of p53 mutants. Its activity against the p53 null cell lines is greatly diminished and is actually lower than its cytotoxicity.
(§2) The human colon cancer cell line HCT116 wild type was obtained from ATCC and the normal human fibroblast cell lines NHDF were obtained from PromoCell. The human colon cancer cell line HCT116 with a p53 deletion (p53^−/−) was kindly provided by Prof. M. Rusin from the Maria Sklodowska-Curie Memorial Cancer Centre and Institute of Oncology in Gliwice, Poland[89]. The cells were grown as monolayer cultures in Dulbecco’s modified Eagle’s medium with the antibiotic gentamicin (200 μL/100 mL medium) in 75 cm^2 flasks (Nunc). The DMEM for the HCT116 were supplemented with 12% heat-inactivated fetal bovine serum (Sigma-Aldrich, St. Louis, MO, USA) and for NHDF with 15% non-inactivated fetal bovine serum (Sigma Aldrich, St. Louis, MO, USA). The cells were cultured under standard conditions at 37 °C in a humidified atmosphere at 5% CO2.
(§3) The cells were seeded in 96-well plates (Nunc) at a density of 5,000 cells/well (HCT116) and 4,000 cells/well (NHDF) and incubated at 37 °C for 24 h. The assay was performed following a 72 h incubation with varying concentrations of the compounds that were being tested. Then, 20 µL of CellTiter 96® AQueous One Solution-MTS (Promega) was added to each well (with 100 µL DMEM without phenol red) and incubated for 1 h at 37 °C. The optical densities of the samples were analyzed at 490 nm using a Synergy 4 multi-plate reader (BioTek, Winooski, VT, USA). The results are expressed as the percentage of the control and were calculated as the inhibitory concentration (IC50) values (using a GraphPad Prism 7). The IC50 parameter was defined as the compound concentration that was necessary to reduce the proliferation of cells to 50% of the untreated control. Each individual compound was tested in triplicate in a single experiment with each experiment being repeated three or four times.

NHDF = assay: Cytotoxicity (MTS, 72 h) against normal human fibroblasts; type: cell-based; settings: MTS, 72 h incubation
Experimental: as §1, §2, §3

HCT116^−/− = assay: Antiproliferative assay (MTS, 72 h) on HCT116 with p53 deletion; type: cell-based, human; settings: for IC50: MTS, 72 h incubation
Experimental: as §1, §2, §3

CT-DNA = assay: Spectrophotometric DNA intercalation assay; type: binding, calf; settings: for % hypochromism / Δε: bound to CT-DNA
From the text: The fused aromatic rings of the naphthalene moiety and halogen substituents in aniline may guarantee good intercalating properties[71],[72]. On the other hand, the intercalation of DNA may explain the high activity against both the wild-type and p53 mutants as was reported for a series of styrylquinolines. Binding to DNA causes the bases to mismatch or cleave, which results in the arrest of the cell cycle and apoptosis. The effectiveness of the p53 system is one of the most important factors in the response to therapy. We tested the intercalating properties of the selected compounds in a spectrophotometric assay on calf-thymus DNA. The absorption spectra of the tested compounds in the absence and presence of CT-DNA are presented in Figure S1 Supplementary Information and the spectral properties with doxorubicine and CP-31398 are summarized in Table 2.
For the DNA binding studies, Calf-thymus DNA (CT-DNA) was purchased from Sigma- Aldrich. The lyophilized CT-DNA was dissolved in 10 mM Tris-HCl, pH 7.9, mixed gently and left overnight at 4 °C. The purity of the CT-DNA solution was determined by measuring the ratio of UV absorbance at 260 and 280 nm. […] Then, the concentration of CT-DNA was determined from the absorbance at 260 nm using an extinction coefficient of 6600 M^−1cm^−1. The tested compounds including DOX and CP-31398 were dissolved to a concentration of 8.35 mM in DMSO, which was then used as the stock solution for preparing the various concentrations (25, 12.5, 6 and 3 µM) in 1 mL in 10 mM of Tris-HCl (pH 7.9). Afterwards, 18 µM CT-DNA was added to the prepared solutions, which were incubated for 1.5 h at 37 °C with occasional vortexing. The absorption spectra were measured using a Hitachi U-2900 spectrophotometer in the range of 200–500 nm. All absorption spectra were imported into OriginPro 8.0 and compared.

[1] = for CP-31398 first value (312 nm band)

Compound	IC50 (HCT116^+/+; Homo sapiens, HCT-116) [µM]	melting point [°C]	IC50 (NHDF; Homo sapiens, NHDF) [µM]	IC50 (HCT116^−/−; Homo sapiens, HCT-116) [µM]	also measured
O=C(Nc1cccc(Cl)c1F)c1ccc2ccccc2c1O [4o]	8.78 ± 2.18	172 to 174	> 25	6.76 ± 2.37	
O=C(Nc1cccc(C(F)(F)F)c1F)c1ccc2ccccc2c1O [4p]	6.5 ± 1.16	174 to 175	24.4 ± 2.51	5.45 ± 1.72	
O=C(Nc1ccc(Cl)cc1F)c1ccc2ccccc2c1O [4q]	9.89 ± 3.26	163 to 165	> 25	9.69 ± 3.13	
O=C(Nc1ccc(Br)cc1F)c1ccc2ccccc2c1O [4r]	15 ± 4.82	172 to 174	> 25	3.43 ± 0.69	selectivity towards the p53 null cells (HCT116 p53^−/− vs wild type) (HCT116^−/−): roughly 4.5 fold
O=C(Nc1cc(Cl)ccc1F)c1ccc2ccccc2c1O [4s]	8.66 ± 1.61	169 to 171	> 25	10.7 ± 1.73	
O=C(Nc1cc(Br)ccc1F)c1ccc2ccccc2c1O [4t]	11.9 ± 1.28	174 to 177	> 25	14 ± 2.2	
O=C(Nc1cc(C(F)(F)F)ccc1F)c1ccc2ccccc2c1O [4u]	10.1 ± 2.61	190 to 192	> 25	7.45 ± 1.74	
O=C(Nc1ccc(Br)c(F)c1)c1ccc2ccccc2c1O [4v]	10.9 ± 2.69	199 to 202	> 25	12.4 ± 1.11	selectivity towards the p53 null cells (HCT116 p53^−/− vs wild type) (HCT116^−/−): not selective
O=C(Nc1cc(F)c(C(F)(F)F)cc1F)c1ccc2ccccc2c1O [4z]	4.22 ± 0.87	229 to 231	18.4 ± 0.91	2.82 ± 0.77	
O=C(Nc1cc(F)cc(C(F)(F)F)c1)c1ccc2ccccc2c1O [4×]	9.01 ± 0.45	165 to 167	24.1 ± 2.02	> 25	
O=C(Nc1ccc(F)cc1Cl)c1ccc2ccccc2c1O [5m]	7.57 ± 2.16	162 to 166	> 25	8.29 ± 2.92	
COc1ccc(Cl)c(NC(=O)c2ccc3ccccc3c2O)c1 [5p]	24.1 ± 2.58	159 to 161	> 25	19.3 ± 2.09	
O=C(Nc1ccc(C(F)(F)F)cc1Br)c1ccc2ccccc2c1O [6i]	3.58 ± 1.25	168 to 170	18.4 ± 1.23	2.19 ± 0.67	
O=C(Nc1cc(F)ccc1Br)c1ccc2ccccc2c1O [6j]	7.78 ± 1.37	187 to 190	> 25	5.83 ± 1.06	
O=C(Nc1c(Br)cc(C(F)(F)F)cc1Br)c1ccc2ccccc2c1O [6l]	9.37 ± 0.47	183 to 186	20.4 ± 1.16	6.81 ± 2.66	
O=C(Nc1ccc(F)c(C(F)(F)F)c1)c1ccc2ccccc2c1O [7m]	12 ± 3.68	164 to 166	> 25	14.5 ± 4.53	
O=C(Nc1ccc(Cl)c(C(F)(F)F)c1)c1ccc2ccccc2c1O [7n]	9.66 ± 3.17	173 to 175	> 25	18.7 ± 2.78	
O=C(Nc1ccc(Br)c(C(F)(F)F)c1)c1ccc2ccccc2c1O [7o]	> 25	172 to 173	> 25	13.9 ± 3.75	
COc1ccc(/C=C/c2nc(NCCCN(C)C)c3ccccc3n2)cc1 [CP-31398, reference compound]					IC50 (HCT116^+/+): 18.6 ± 0.92 µM; IC50 (NHDF): 12.3 ± 0.54 µM; IC50 (HCT116^−/−): 26.3 ± 1.41 µM; Changes in absorbance (CT-DNA; bound to CT-DNA (18 µM), 1.5 h 37 °C, Tris-HCl pH 7.9): hypochromism; % hypochromism (CT-DNA; [1]): 41.4%; Δε (CT-DNA; [1]): 1515.6 M⁻¹ cm⁻¹; % hypochromism (CT-DNA; second value (350 nm band)): 37.4%; Δε (CT-DNA; second value (350 nm band)): 1693.3 M⁻¹ cm⁻¹; red shift (CT-DNA; wavelengths of maximum absorption, individual vs DNA-bound compound): 0 nm
